Results taken from US10052330B2, “Substituted pyrido[3,4-b]pyrazines as Syk inhibitors” (HUTCHISON MEDIPHARMA LIMITED, priority 2011, dated 2018).

What was measured:
RBL-2H3 cells = experiment: IgE-induced Beta-hexosaminidase secretion in RBL-2H3 cells; assay type: cell-based; details: Rattus norvegicus, RBL-2H3, RBL-2H3 cells sensitized with SPE-7, stimulated with DNP-BSA; upper bound of each range is 'less than'; read-out: IC50, IgE-induced Beta-hexosaminidase secretion
Syk kinase = Syk kinase (Homo sapiens, UniProt P43405); experiment: Syk kinase enzymatic assay (Kit-Tyr 2 Peptide); assay type: biochemical; details: 8 concentrations, 1 μM down to 0.0003 μM; upper bound of each range is 'less than'; read-out: IC50: Enzymatic Activity (Syk kinase)

Row | SMILES | IC50 (RBL-2H3 cells) | IC50 (Syk kinase)
1 | NC(=O)NC[C@@H]1CCN(c2nc(-c3ccc(N4CCOCC4)cc3)cc3nccnc23)C1 [Compound 150, (S)-1-((1-(7-(4-morpholinophenyl)pyrido[4,3-b]pyrazin-5-yl)pyrrolidin-3-yl)methyl)urea] | 100 to 1000 nM | 100 to 1000 nM
2 | NC(=O)NC[C@H]1CCN(c2nc(-c3ccc(N4CCOCC4)cc3)cc3nccnc23)C1 [Compound 151] | 100 to 1000 nM | 100 to 1000 nM
3 | FC1=CC(CNc2nc(-c3ccc(N4CCOCC4)cc3)cc3nccnc23)CNC1 (centres unmarked) [Compound 157] | 1 to 100 nM | 1 to 100 nM
4 | c1cnc2c(NCc3cc[nH]n3)nc(-c3ccc(N4CCOCC4)cc3)cc2n1 [Compound 162] | 100 to 1000 nM | 100 to 1000 nM
5 | CN(C)c1ccc(-c2cc3nccnc3c(N3CC[C@H](CO)C3)n2)cc1 [Compound 164] | 100 to 1000 nM | 100 to 1000 nM
6 | CN(C)c1ccc(-c2cc3nccnc3c(N3CC[C@@H](CO)C3)n2)cc1 [Compound 165] | 1 to 100 nM | 100 to 1000 nM
7 | CN(C)c1ccc(-c2cc3nccnc3c(NCCS(N)(=O)=O)n2)cc1 [Compound 166] | 100 to 1000 nM | 100 to 1000 nM
8 | NS(=O)(=O)CCNc1nc(-c2ccc(N3CCOCC3)cc2)cc2nccnc12 [Compound 167] | 100 to 1000 nM | 100 to 1000 nM
9 | O=C1CCC(CNc2nc(-c3ccc(N4CCOCC4)cc3)cc3nccnc23)CN1 (centres unmarked) [Compound 168] | 100 to 1000 nM | 100 to 1000 nM
10 | c1cnc2c(NCCc3c[nH]cn3)nc(-c3ccc(N4CCOCC4)cc3)cc2n1 [Compound 172] | 100 to 1000 nM | 100 to 1000 nM
11 | CC(O)[C@H]1CCN(c2nc(-c3ccc(N4CCOCC4)cc3)cc3nccnc23)C1 (stereo partly drawn) [Compound 174, (S)-1-(1-(7-(4-morpholinophenyl)pyrido[4,3-b]pyrazin-5-yl)pyrrolidin-3-yl)ethanol] | 100 to 1000 nM | 100 to 1000 nM
12 | CN(C)c1ccc(-c2cc3nccnc3c(NCCC(N)=O)n2)cc1 [Compound 175, 3-(7-(4-(dimethylamino)phenyl)pyrido[4,3-b]pyrazin-5-ylamino)propanamide] | 100 to 1000 nM | 100 to 1000 nM
13 | COc1ccc(-c2cc3nccnc3c(NCCC(N)=O)n2)cc1F [Compound 176] | 100 to 1000 nM | 100 to 1000 nM
14 | NC(=O)CCNc1nc(-c2ccc(N3CCCC3)cc2)cc2nccnc12 [Compound 177] | 1 to 100 nM | 100 to 1000 nM
15 | NC(=O)C1CCN(c2nc(-c3ccc(N4CCOCC4)cc3)cc3nccnc23)C1 (centres unmarked) [Compound 179] | 100 to 1000 nM | 1 to 100 nM
16 | CN1CCN(c2ccc(-c3cc4nccnc4c(NCCCN)n3)cc2)CC1 [Compound 186] | 100 to 1000 nM | 1 to 100 nM
17 | NCCCNc1nc(-c2ccc(N3CCOCC3)nc2)cc2nccnc12 [Compound 194] | 100 to 1000 nM | 100 to 1000 nM
18 | FC1(F)CCNCC1CNc1nc(-c2ccc(N3CCOCC3)c(Cl)c2)cc2nccnc12 (centres unmarked) [Compound 205] | 1 to 100 nM | 1 to 100 nM
19 | CC1CN(c2ccc(-c3cc4nccnc4c(NC[C@@H]4CNCCO4)n3)cc2)CCO1 (some centres unmarked) [Compound 208] | 1 to 100 nM | 1 to 100 nM
20 | CCN1CCN(c2ccc(-c3cc4nccnc4c(NCC4CNCCO4)n3)cc2)CC1 (centres unmarked) [Compound 215] | 1 to 100 nM | 1 to 100 nM
21 | OCCN1CCN(c2ccc(-c3cc4nccnc4c(NCC4CNCCO4)n3)cc2)CC1 (centres unmarked) [Compound 216] | 1 to 100 nM | 1 to 100 nM
22 | CC(C)(O)CN1CCN(c2ccc(-c3cc4nccnc4c(NCC4CNCCO4)n3)cc2)CC1 (centres unmarked) [Compound 217] | 1 to 100 nM | 1 to 100 nM

Row | SMILES | IC50 (RBL-2H3 cells) | IC50 (Syk kinase)
23 | c1cnc2c(NC[C@@H]3CNCCO3)nc(-c3ccc(N4CCCOCC4)cc3)cc2n1 [Compound 218] | 1 to 100 nM | 1 to 100 nM
24 | Fc1cc(-c2cc3nccnc3c(NC[C@@H]3CNCCO3)n2)ccc1N1CCCOCC1 [Compound 219] | 1 to 100 nM | 1 to 100 nM
25 | c1cnc2c(NCC3CNCCCO3)nc(-c3ccc(N4CCOCC4)cc3)cc2n1 (centres unmarked) [Compound 220] | 100 to 1000 nM | 100 to 1000 nM
26 | Cc1cc(-c2cc3nccnc3c(NCC3CNCCCO3)n2)ccc1N1CCOCC1 (centres unmarked) [Compound 221] | 1 to 100 nM | 1 to 100 nM
27 | Fc1cc(-c2cc3nccnc3c(NCC3CNCCCO3)n2)ccc1N1CCOCC1 (centres unmarked) [Compound 222] | 100 to 1000 nM | 100 to 1000 nM
28 | Clc1cc(-c2cc3nccnc3c(NCC3CNCCCO3)n2)ccc1N1CCOCC1 (centres unmarked) [Compound 223] | 100 to 1000 nM | 100 to 1000 nM
29 | FC1(F)CCN(c2ccc(-c3cc4nccnc4c(NC[C@@H]4CNCCO4)n3)cc2)C1 [Compound 226] | 1 to 100 nM | 1 to 100 nM
30 | CN(c1ccc(-c2cc3nccnc3c(NCC3CNCCO3)n2)cc1)S(C)(=O)=O (centres unmarked) [Compound 228] | 100 to 1000 nM | 1 to 100 nM
31 | FC1(F)CCN(c2ccc(-c3cc4nccnc4c(NC[C@@H]4CNCCO4)n3)cc2)CC1 [Compound 229] | 1 to 100 nM | 1 to 100 nM
32 | F[C@H]1CCN(c2ccc(-c3cc4nccnc4c(NCC4CNCCO4)n3)cc2)C1 (some centres unmarked) [Compound 231] | 1 to 100 nM | 1 to 100 nM
33 | Cn1ccc2cc(-c3cc4nccnc4c(NC[C@@H]4CNCCO4)n3)cnc21 [Compound 234] | 100 to 1000 nM | 100 to 1000 nM
34 | Cn1ccc2cc(-c3cc4nccnc4c(NC[C@@H]4CNCCO4)n3)ccc21 [Compound 235] | 1 to 100 nM | 1 to 100 nM
35 | CN1CCN(c2ccc(-c3cc4nccnc4c(NC[C@H]4CCCNC4)n3)cc2F)CC1 [Compound 237] | 1 to 100 nM | 1 to 100 nM
36 | CCN1CCN(c2ccc(-c3cc4nccnc4c(NC[C@H]4CCCNC4)n3)cc2F)CC1 [Compound 238] | 100 to 1000 nM | 1 to 100 nM
37 | Fc1cc(-c2cc3nccnc3c(NCC3CNCCS3)n2)ccc1N1CCOCC1 (centres unmarked) [Compound 240] | 1 to 100 nM | 1 to 100 nM
38 | CN1CCN(c2ccc(-c3cc4nccnc4c(NCC4CNCCS4)n3)cc2)CC1 (centres unmarked) [Compound 241] | 100 to 1000 nM | 1 to 100 nM
39 | C[C@@H]1CN(c2ccc(-c3cc4nccnc4c(NC[C@@H]4CNCCO4)n3)cc2F)C[C@H](C)O1 [Compound 247] | 1 to 100 nM | 100 to 1000 nM
40 | FC1(CNc2nc(-c3ccc(N4CCOCC4)cc3)cc3nccnc23)CCCNC1 (centres unmarked) [Compound 251] | 1 to 100 nM | 1 to 100 nM
41 | CN1CCN(c2ccc(-c3cc4nccnc4c(NCC4(F)CCCNC4)n3)cc2)CC1 (centres unmarked) [Compound 253] | 100 to 1000 nM | 1 to 100 nM
42 | Fc1cc(-c2cc3nccnc3c(NCC3(F)CCCNC3)n2)ccc1N1CCOCC1 (centres unmarked) [Compound 254] | 1 to 100 nM | 1 to 100 nM
43 | COc1ccc(-c2cc3nccnc3c(NCC3(F)CCCNC3)n2)cc1F (centres unmarked) [Compound 255] | 1 to 100 nM | 100 to 1000 nM
44 | CN1CCN(c2ccc(-c3cc4nccnc4c(NC[C@@H]4CNCCO4)n3)cn2)CC1 [Compound 259] | 100 to 1000 nM | 100 to 1000 nM

Row | SMILES | IC50 (RBL-2H3 cells) | IC50 (Syk kinase)
45 | CN1CCCN(c2ccc(-c3cc4nccnc4c(NC[C@@H]4CNCCO4)n3)cn2)CC1 [Compound 260] | 100 to 1000 nM | 100 to 1000 nM
46 | c1cnc2c(NC[C@@H]3CNCCO3)nc(-c3cnn(C4CCOCC4)c3)cc2n1 [Compound 261] | 100 to 1000 nM | 100 to 1000 nM
47 | CN(c1ccc(-c2cc3nccnc3c(NC[C@@H]3CNCCO3)n2)cn1)C1CCOCC1 [Compound 264] | 1 to 100 nM | 1 to 100 nM
48 | O=C(C1CC1)N1CCN(c2ccc(-c3cc4nccnc4c(NC[C@@H]4CNCCO4)n3)cc2)CC1 [Compound 266] | 1 to 100 nM | 1 to 100 nM
49 | CCC(=O)N1CCN(c2ccc(-c3cc4nccnc4c(NC[C@@H]4CNCCO4)n3)cc2)CC1 [Compound 267] | 1 to 100 nM | 1 to 100 nM
50 | c1cnc2c(NC[C@@H]3CNCCO3)nc(-c3ccc(N4CCCOCC4)nc3)cc2n1 [Compound 269] | 1 to 100 nM | 1 to 100 nM
51 | CN(C)C(=O)C1CCN(c2ccc(-c3cc4nccnc4c(NC[C@@H]4CNCCO4)n3)cc2)CC1 [Compound 270] | 100 to 1000 nM | 1 to 100 nM
52 | O=C(CO)N1CCN(c2ccc(-c3cc4nccnc4c(NC[C@@H]4CNCCO4)n3)cc2)CC1 [Compound 272] | 1 to 100 nM | 1 to 100 nM
53 | CC(C)(O)C1CCN(c2ccc(-c3cc4nccnc4c(NC[C@@H]4CNCCO4)n3)cc2)CC1 [Compound 275] | 1 to 100 nM | 1 to 100 nM
54 | CC(Nc1nc(-c2ccc(N3CCOCC3)cc2)cc2nccnc12)C1CNCCO1 (centres unmarked) [Compound 276] | 1 to 100 nM | 1 to 100 nM
55 | CC(Nc1nc(-c2ccc(N3CCOCC3)c(F)c2)cc2nccnc12)C1CNCCO1 (centres unmarked) [Compound 278] | 1 to 100 nM | 1 to 100 nM
56 | COCC(=O)N1CCN(c2ccc(-c3cc4nccnc4c(NC[C@@H]4CNCCO4)n3)cc2)CC1 [Compound 279] | 1 to 100 nM | 1 to 100 nM
57 | CS(=O)(=O)CC(=O)N1CCN(c2ccc(-c3cc4nccnc4c(NC[C@@H]4CNCCO4)n3)cc2)CC1 [Compound 280] | 100 to 1000 nM | 1 to 100 nM
58 | CN(c1ccc(-c2cc3nccnc3c(NC[C@@H]3CNCCO3)n2)cc1)C1CCOCC1 [Compound 285] | 1 to 100 nM | 1 to 100 nM
59 | OCCOC1CCN(c2ccc(-c3cc4nccnc4c(NC[C@@H]4CNCCO4)n3)cc2)CC1 [Compound 286] | 1 to 100 nM | 1 to 100 nM
60 | CCS(=O)(=O)N1CCN(c2ccc(-c3cc4nccnc4c(NC[C@@H]4CNCCO4)n3)cc2F)CC1 [Compound 287] | 1 to 100 nM | 1 to 100 nM
61 | FC1(CNc2nc(-c3cnn(C4CCCC4)c3)cc3nccnc23)CCCNC1 (centres unmarked) [Compound 289] | 1 to 100 nM | 1 to 100 nM
62 | FC1(CNc2nc(-c3cnn(C4CCOCC4)c3)cc3nccnc23)CCCNC1 (centres unmarked) [Compound 290] | 1 to 100 nM | 1 to 100 nM
63 | CNc1ccc(-c2cc3nccnc3c(NCC3CNCCC3(F)F)n2)cc1 (centres unmarked) [Compound 291] | 1 to 100 nM | 1 to 100 nM
64 | FC1(F)CCNCC1CNc1nc(-c2ccc(N3CCOCC3)nc2)cc2nccnc12 (centres unmarked) [Compound 292] | 1 to 100 nM | 1 to 100 nM
